In US11401278B2, “Macrocyclic indole derivatives” (The Broad Institute, Inc., priority 2017, dated 2022):

Experiments:
BCL-2 = BCL-2 (Homo sapiens (Human), UniProt P10415); assay: Protein-protein interaction assay BCL-2/Bad BH3 peptide (BCL-2 assay, TR-FRET); assay type: binding; conditions: His-BCL-2 / Bad BH3 peptide, median
How it was run: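 His-BCL-2 (1-211, E. coli) at 1 nM preincubated 10 min at 22 °C with compound (11 concentrations, 0.1 nM-20 μM, duplicates), then 1 nM biotinylated Bad BH3 peptide added. After 1 h at 22 °C plus overnight at 4 °C, TR-FRET 665/620 ratio normalised to DMSO and no-BCL-2 controls, IC50 from 4-parameter fit.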

SUDHL10 = assay: Induction of caspase-3/7 activity (Assay 4), SUDHL10; assay type: cell-based; conditions: caspase-3/7 induction, median
How it was run: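 DLBCL cells were exposed to compounds for 3 hours at 37 °C, then caspase-3/7 activation was read with Caspase-Glo 3/7 reagent. After subtracting medium-only background, EC50s were derived with fixed C0=1 and the reference compound's maximal induction as plateau.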

Sequence of BCL-2 (P10415 other isoform, or with tags, fused parts or gaps): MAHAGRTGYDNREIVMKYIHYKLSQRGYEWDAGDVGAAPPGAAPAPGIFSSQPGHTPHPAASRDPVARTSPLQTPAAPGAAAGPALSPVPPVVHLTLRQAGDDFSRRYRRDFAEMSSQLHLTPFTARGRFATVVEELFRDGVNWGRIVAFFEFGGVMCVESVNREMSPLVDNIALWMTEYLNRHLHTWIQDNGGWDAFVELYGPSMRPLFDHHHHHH

Structure (SMILES)	IC50 (BCL-2) [µM]	EC50 (SUDHL10; Homo sapiens, SU-DHL10, 3 h) [µM]	EC50 (SUDHL10; 3 hours) [µM]
CCc1c2c(nn1C)CN(C)S(=O)(=O)CCCn1c(C(=O)O)c(CCCOc3cccc4ccccc34)c3ccc(Cl)c-2c31 [Example 20, (rac)-13-Chloro-12-ethyl-8,11-dimethyl-1-(3-(naphthalen-1-yloxy)propyl)-5,6,9,11-tetrahydro-4H,8H-pyrazolo[3′,4′:4,5][1]thia[2,8]diazacycloundecino[6,7,8-hi]indole-2-carboxylic acid 7,7-dioxide]	> 20	2.1	–
CCc1c2c(nn1C)CN(C)S(=O)(=O)CCCn1c(C(=O)O)c(CCCOc3cccc4c3CCC4)c3ccc(Cl)c-2c31 [Example 21, (rac)-13-Chloro-1-(3-((2,3-dihydro-1H-inden-4-yl)oxy)propyl)-12-ethyl-8,11-dimethyl-5,6,9,11-tetrahydro-4H,8H-pyrazolo[3′,4′:4,5][1]thia[2,8]diazacycloundecino[6,7,8-hi]indole-2-carboxylic acid 7,7-dioxide]	> 20	1.4	–
CCc1c2c(nn1C)CN(C)S(=O)(=O)CCCn1c(C(=O)O)c(CCCOc3cc(C)c(Cl)c(C)c3)c3ccc(Cl)c-2c31 [Example 22, (rac)-13-Chloro-1-(3-(4-chloro-3,5-dimethylphenoxy)propyl)-12-ethyl-8,11-dimethyl-4,5,6,8,9,11-hexahydropyrazolo[3′,4′:4,5][1,2,8]thiadiazacycloundecino[6,7,8-hi]indole-2-carboxylic acid 7,7-dioxide]	> 20	3.3	–
CCc1c2c(nn1C)CN(C)S(=O)(=O)CCCn1c(C(=O)O)c(CCCOc3cccc4c3CCCC4)c3ccc(Cl)c-2c31 [Example 23, (rac)-13-Chloro-12-ethyl-8,11-dimethyl-1-(3-((5,6,7,8-tetrahydronaphthalen-1-yl)oxy)propyl)-4,5,6,8,9,11-hexahydropyrazolo[3′,4′:4,5][1,2,8]thiadiazacycloundecino[6,7,8-hi]indole-2-carboxylic acid 7,7-dioxide]	15	2.3	–
CCc1c2c(nn1C)CN(C)S(=O)(=O)CCCn1c(C(=O)O)c(CCCOc3ccc(F)c4ccccc34)c3ccc(Cl)c-2c31 [Example 24, (rac)-13-Chloro-12-ethyl-1-(34(4-fluoronaphthalen-1-yl)oxy)propyl)-8,11-dimethyl-4,5,6,8,9,11-hexahydropyrazolo[3′,4′:4,5][1,2,8]thiadiazacycloundecino[6,7,8-hi]indole-2-carboxylic acid 7,7-dioxide]	> 20	2.3	–
Cc1c2c(nn1C)CN(C)S(=O)(=O)CCCn1c(C(=O)O)c(CCCOc3ccc(F)c4ccccc34)c3ccc(F)c-2c31 [Example 30, (rac)-13-Fluoro-1-(34(4-fluoronaphthalen-1-yl)oxy)propyl)-8,11,12-trimethyl-5,6,9,11-tetrahydro-4H,8H-pyrazolo[3′,4′:4,5][1]thia[2,8]diazacycloundecino[6,7,8-hi]indole-2-carboxylic acid 7,7-dioxide]	> 20	5.6	–
Cc1c2c(nn1C)CN(C1CC1)S(=O)(=O)CCCn1c(C(=O)O)c(CCCOc3cccc4ccccc34)c3ccc(Cl)c-2c31 [Example 40, (rac)-4-chloro-14-cyclopropyl-2,3-dimethyl-7-[3-(1-naphthyloxy)propyl]-11,12,14,15-tetrahydro-2H,10H-pyrazolo[3′,4′:4,5][1,2,8]thiadiazacycloundecino[6,7,8-hi]indole-8-carboxylic acid 13,13-dioxide]	> 20	–	3.3
CCc1c2c(nn1C)CN(CCN1CCOCC1)S(=O)(=O)CCCn1c(C(=O)O)c(CCCOc3cccc4cc(F)ccc34)c3ccc(Cl)c-2c31 [Example 77, (rac)-13-chloro-12-ethyl-1-(3-((6-fluoronaphthalen-1-yl)oxy)propyl)-11-methyl-8-(2-morpholinoethyl)-5,6,9,11-tetrahydro-4H,8H-pyrazolo[3′,4′:4,5][1]thia[2,8]diazacycloundecino[6,7,8-hi]indole-2-carboxylic acid 7,7-dioxide]	> 20	14	–
